From US20240382409A1, “COMPOSITION FOR ANTI-AGING AND SKIN IMPROVEMENT, COMPRISING COMPLEX OF INDIAN GOOSE-BERRY EXTRACT AND BARLEY SPROUT EXTRACT (lB COMPLEX) AS ACTIVE INGREDIENT” (HLSCIENCE CO., LTD, priority 2021, published 2024) come the findings set out here.

In brackets after ≈: the same amount, converted by molar mass.

The experiment can be described thus: Anti-oxidation test: DPPH radical scavenging activity. The settings on record: positive control. It counts as biochemical. On the procedure: In order to investigate the anti-oxidant effect using Examples 1 to 7 and Comparative examples 1 to 2, the DPPH (2,2-diphenyl-1-picryl hydrazyl) radical scavenging activity was evaluated.
The Examples 1 to 7 and Comparative examples 1 to 2 were mixed with 55 μM DPPH solution 450 μl by concentration and then reacted at 4° C. for 30 minutes. After completing the reaction, each sample was placed in a 96-well plate and the absorbance of samples was measured at 520 nm using a micro-plate reader. Then, a sample untreated group was used as a control group, and the free radical scavenging activity (%) of the sample was calculated as Equation 1 below.
Then, as a positive control scavenging radicals, ascorbic acid was used, and the concentration of ascorbic acid when the free radical scavenging activity was 50% was shown as 1.63 μg/mL.
IC50 means the concentration of sample when the free radical scavenging activity of the treated sample is 50%. Table 5 above summarizes the free radical scavenging activity in 5 μg/mL of each sample. […] It could be confirmed that the DPPH radical scavenging activity of Example 5 was the most excellent among them.

`O=C1O[C@H]([C@@H](O)CO)C(O)=C1O` [Ascorbic acid, ascorbic acid]: the “IC50 (concentration when the free radical scavenging activity is 50%)” value came out at 1.63 µg/mL (≈ 9.25 µM).
